Among the test systems are A549; BT-549; COLO 205; DU-145; HCT-116; HCT-15; HL-60; KM12; LOX IMVI; MDA-MB-231; NCI-H23; NCI-H460; NCI/ADR-RES; OVCAR-3; SK-MEL-28; SNB-19; T47D; U-251; UACC-257; UO-31.
Test in all cases: NCI tumour cell line growth inhibition, 48 h

These results are taken from ChEMBL document CHEMBL1201862, “PubChem BioAssay data set” (2004).

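Protocol summary: plate cells (96-well), add compound at 5 concentrations, incubate 48 h, interpolate endpoints linearly. GI50: concentration for 50% inhibition of growth.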 Calls of active or inactive are those of the source. Rule as the data show it: active = GI50 up to about 1.1 µM and inactive = higher.

Turning to `O=C(/C=C/c1ccccc1)c1cc(Br)ccc1O`, the GI50 in the experiment on A549 is 24 µM (inactive); in the experiment with BT-549, 16 µM (inactive); with COLO 205, 17.3 µM (inactive); with DU-145, 14.9 µM (inactive); in the experiment on HCT-116, 16.3 µM (inactive); in the experiment with HCT-15, 14.1 µM. Besides, the GI50 is 4.06 µM (inactive) in the experiment with HL-60; 12 µM (inactive) in the experiment with KM12; 12.2 µM (inactive) in the experiment with LOX IMVI; 18 µM (inactive) in the experiment on MDA-MB-231; 16 µM (inactive) in the experiment with NCI-H23; 17.9 µM (inactive) with NCI-H460. Besides, the GI50 in the experiment with NCI/ADR-RES is 17.5 µM (inactive); in the experiment on OVCAR-3, 18 µM (inactive); with SK-MEL-28 it was 15.5 µM (inactive); in the experiment with SNB-19, 17.1 µM (inactive); in the experiment on T47D, 8.45 µM (inactive); in the experiment with U-251 it was 15.1 µM (inactive). In addition, the GI50 in the experiment with UACC-257 was 14 µM (inactive); with UO-31, 10.9 µM (inactive).
Turning to `O=C(NCCN1C(=O)CN=C(c2ccc(Cl)cc2)c2cc(Cl)ccc21)OCc1ccccc1`, the GI50 in the experiment with A549 is 10.6 µM (inactive); in the experiment on BT-549 it was 15.6 µM (inactive); in the experiment on COLO 205, 19.8 µM (inactive); in the experiment on DU-145, 18.2 µM (inactive); in the experiment with HCT-116, 11.9 µM (inactive); with HCT-15, 13.4 µM. Moreover, the GI50 with HL-60 is 10.1 µM (inactive); in the experiment with KM12, 15.3 µM (inactive); in the experiment with LOX IMVI, 17.4 µM (inactive); in the experiment with MDA-MB-231, 14.8 µM (inactive); in the experiment on NCI-H23 it was 14.1 µM (inactive); with NCI-H460, 13.4 µM (inactive). Further, the GI50 in the experiment on NCI/ADR-RES is 11.9 µM (inactive); in the experiment with OVCAR-3 it was 12.6 µM (inactive); in the experiment with SK-MEL-28, 33.7 µM (inactive); with SNB-19, 18.9 µM (inactive); with T47D it was 30.8 µM (inactive); in the experiment with U-251, 15.2 µM (inactive). Besides, the GI50 was 15.3 µM (inactive) with UACC-257 and 10.9 µM (inactive) with UO-31.
Take `Cc1ccc(-c2nc(C)c(C(=O)Nc3ccc(Cl)cc3)s2)cc1`: the GI50 in the experiment on A549 was 61.7 µM (inactive); in the experiment with BT-549, 13.9 µM (inactive); in the experiment on COLO 205 it was > 100 µM (inactive); in the experiment with DU-145 it was > 100 µM (inactive); with HCT-116, 18.5 µM (inactive); with HCT-15, over 100 µM. Further, the GI50 in the experiment with HL-60 was > 100 µM (inactive); in the experiment with KM12, > 100 µM (inactive); in the experiment on LOX IMVI it was 31.1 µM (inactive); in the experiment on MDA-MB-231 it was 30.3 µM (inactive); in the experiment with NCI-H23 it was 24.2 µM (inactive); with NCI-H460, 29.5 µM (inactive). Further, the GI50 was 29.2 µM (inactive) in the experiment with NCI/ADR-RES; 24.1 µM (inactive) in the experiment with OVCAR-3; > 100 µM (inactive) with SK-MEL-28; 20.5 µM (inactive) in the experiment with SNB-19; > 100 µM (inactive) in the experiment on T47D; 22.1 µM (inactive) in the experiment on U-251. Moreover, the GI50 is > 100 µM (inactive) with UACC-257 and 18.8 µM (inactive) in the experiment with UO-31.
On to `O=C1C=C(Nc2nc(O)cc(C(=O)O)n2)c2ccccc2C1=O`, for which the GI50 in the experiment on A549 was > 100 µM (inactive); in the experiment on BT-549, > 100 µM (inactive); in the experiment on COLO 205, > 100 µM (inactive); in the experiment on DU-145, > 100 µM (inactive); with HCT-116, > 100 µM (inactive); in the experiment on HCT-15, over 100 µM. The GI50 with HL-60, in the experiment with KM12, in the experiment with LOX IMVI, in the experiment with MDA-MB-231, in the experiment with NCI-H23 and in the experiment on NCI-H460 was > 100 µM (inactive) in each case. In addition, the GI50 in the experiment with NCI/ADR-RES, in the experiment on OVCAR-3, in the experiment on SK-MEL-28, in the experiment with SNB-19, in the experiment on T47D and in the experiment on U-251 was > 100 µM (inactive) in each case. Moreover, the GI50 with UACC-257 and in the experiment on UO-31 was > 100 µM (inactive) each time.
On to `S=C1CC(c2ccccc2)Sc2ccccc2N1` (stereo not given), for which the GI50 was > 10 µM (inactive) in the experiment with A549; 53 µM (inactive) in the experiment on BT-549; > 100 µM (inactive) in the experiment on COLO 205; 87.1 µM (inactive) in the experiment with DU-145; 37 µM (inactive) in the experiment on HCT-116; 93.3 µM with HCT-15. The GI50 was > 100 µM (inactive) in the experiment on HL-60; 95.3 µM (inactive) in the experiment with KM12; > 100 µM (inactive) in the experiment on LOX IMVI; 45.2 µM (inactive) in the experiment with MDA-MB-231; 81.8 µM (inactive) in the experiment on NCI-H23; 63.1 µM (inactive) with NCI-H460. The GI50 in the experiment on NCI/ADR-RES was 68.9 µM (inactive); in the experiment on OVCAR-3 it was 45.5 µM (inactive); in the experiment with SK-MEL-28 it was 51.4 µM (inactive); with SNB-19 it was 35.6 µM (inactive); with T47D it was > 100 µM (inactive); in the experiment on U-251, 44.2 µM (inactive). Further, the GI50 in the experiment with UACC-257 and in the experiment with UO-31 was > 100 µM (inactive) throughout.
As for `CCC1=CC2Cc3nc4cc(Cl)ccc4c(N)c3C(C1)C2` (stereo not given), the GI50 was 7.59 µM (inactive) in the experiment with A549; 15.5 µM (inactive) in the experiment on BT-549; 2.07 µM (inactive) in the experiment on COLO 205; 11.2 µM (inactive) in the experiment with DU-145; 2.54 µM (inactive) in the experiment on HCT-116; 7.21 µM with HCT-15. The GI50 in the experiment on HL-60 was 2.29 µM (inactive); with KM12, 5.78 µM (inactive); in the experiment on LOX IMVI, 4.54 µM (inactive); in the experiment on MDA-MB-231, 5.58 µM (inactive); in the experiment on NCI-H23 it was 5.52 µM (inactive); with NCI-H460, 4.07 µM (inactive). Further, the GI50 was 8.3 µM (inactive) in the experiment with NCI/ADR-RES; 7.29 µM (inactive) in the experiment on OVCAR-3; 2.86 µM (inactive) with SK-MEL-28; 9.12 µM (inactive) in the experiment with SNB-19; 2.52 µM (inactive) with T47D; 8.59 µM (inactive) in the experiment with U-251. Further, the GI50 is 2.11 µM (inactive) with UACC-257 and 4.92 µM (inactive) in the experiment on UO-31.
Consider `CCOC(=O)CN1CC(C2=C(O)CN(CC(=O)OCC)C2=O)=CC1=O`, for which the GI50 in the experiment on A549 was > 100 µM (inactive); with BT-549, > 100 µM (inactive); with COLO 205, > 100 µM (inactive); in the experiment on DU-145, > 100 µM (inactive); with HCT-116, > 100 µM (inactive); with HCT-15 it was over 100 µM. The GI50 in the experiment on HL-60, in the experiment on KM12, in the experiment on LOX IMVI, in the experiment with MDA-MB-231, in the experiment with NCI-H23 and with NCI-H460 was > 100 µM (inactive) throughout. Moreover, the GI50 in the experiment with NCI/ADR-RES, in the experiment on OVCAR-3, in the experiment with SK-MEL-28, in the experiment with SNB-19, with T47D and in the experiment on U-251 was > 100 µM (inactive) in each case. In addition, the GI50 in the experiment with UACC-257 and with UO-31 was > 100 µM (inactive) in each case.
